Test results: ChEMBL document CHEMBL2203041, “Synthesis, biological assessment, and molecular modeling of racemic 7-aryl-9,10,11,12-tetrahydro-7H-benzo[7,8]chromeno[2,3-b]quinolin-8-amines as potential drugs for the treatment of Alzheimer's disease” (Eur J Med Chem, 2012)

Columns and labels:
[1] = molecular target: Acetylcholinesterase (Homo sapiens, UniProt P22303)
Description: Inhibition of human AChE using acetylthiocholine iodide as substrate incubated for 10 mins prior to substrate addition measured after 15 mins by Ellman's method

[2] = molecular target: Cholinesterase (Homo sapiens, UniProt P06276)
Description: Inhibition of human BuChE using butyrylthiocholine iodide as substrate incubated for 10 mins prior to substrate addition measured after 15 mins by Ellman's method

[3] = molecular target: T1, Acetylcholinesterase (Electrophorus electricus, UniProt O42275); test: Mixed-type inhibition of electric eel AChE using acetylthiocholine iodide as substrate by Ellman's method
T1 sequence (O42275 whole entry): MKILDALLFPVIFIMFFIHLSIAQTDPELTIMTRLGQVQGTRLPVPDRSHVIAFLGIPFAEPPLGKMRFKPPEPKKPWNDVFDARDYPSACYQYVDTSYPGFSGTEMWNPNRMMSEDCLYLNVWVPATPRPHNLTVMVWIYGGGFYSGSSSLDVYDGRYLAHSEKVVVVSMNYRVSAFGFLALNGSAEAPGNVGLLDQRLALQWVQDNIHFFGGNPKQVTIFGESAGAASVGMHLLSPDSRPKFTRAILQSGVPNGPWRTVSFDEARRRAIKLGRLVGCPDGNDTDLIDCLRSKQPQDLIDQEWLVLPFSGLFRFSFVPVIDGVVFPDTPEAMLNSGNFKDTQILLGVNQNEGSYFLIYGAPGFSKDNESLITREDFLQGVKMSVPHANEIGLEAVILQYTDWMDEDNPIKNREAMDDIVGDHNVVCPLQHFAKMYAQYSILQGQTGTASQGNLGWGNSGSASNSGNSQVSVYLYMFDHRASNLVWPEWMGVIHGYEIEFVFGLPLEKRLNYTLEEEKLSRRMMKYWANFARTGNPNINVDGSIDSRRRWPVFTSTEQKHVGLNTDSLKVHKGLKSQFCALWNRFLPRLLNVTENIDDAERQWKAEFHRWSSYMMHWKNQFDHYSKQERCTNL

[4] = Antioxidant activity assessed as AAPH-induced radical scavenging activity incubated for 15 mins prior to AAPH induction measured every 1 min for 80 mins by ORAC-FL assay relative to trolox; type: functional
[5] = Neurotoxicity in Wistar rat primary cortical neurons assessed as decrease in cell viability at 50 uM by XTT assay; type: toxicity, cell-based; conditions: cerebral cortex neuron
[6] = Neurotoxicity in Wistar rat primary cortical neurons assessed as decrease in cell viability at 100 uM by XTT assay; type: toxicity, cell-based; conditions: cerebral cortex neuron
[7] = Permeability of the compound by PAMPA; type: ADME; conditions: read-out: permeability
[8] = tested on: HepG2; test: Cytotoxicity against human HepG2 cells assessed as cell viability after 24 hrs by MTT assay relative to control; type: cell-based; conditions: hepg2, 24 h
[9] = cells; conditions: Rattus norvegicus, Wistar, Cerebral cortex neuron, 24 h
Description: Neuroprotective activity in 20 uM rotenone and 10 uM oligomycin-treated Wistar rat primary cortical neurons assessed as increase in cell viability after 24 hrs by XTT assay

[10] = in vitro; conditions: human, HepG2 cells
Description: Cytotoxicity against human HepG2 cells assessed as cell viability at 1 uM after 24 hrs by MTT assay relative to control

[11] = in vitro; conditions: human, HepG2 cells; remark: listed apart in the source
Description: Cytotoxicity against human HepG2 cells assessed as cell viability at 3 uM after 24 hrs by MTT assay relative to control

[12] = in vitro; conditions: human, HepG2 cells; remark: listed apart in the source
Description: Cytotoxicity against human HepG2 cells assessed as cell viability at 10 uM after 24 hrs by MTT assay relative to control

[13] = in vitro; conditions: human, HepG2 cells; remark: listed apart in the source
Description: Cytotoxicity against human HepG2 cells assessed as cell viability at 30 uM after 24 hrs by MTT assay relative to control

[14] = in vitro; conditions: human, HepG2 cells; remark: listed apart in the source
Description: Cytotoxicity against human HepG2 cells assessed as cell viability at 100 uM after 24 hrs by MTT assay relative to control

[15] = in vitro; conditions: human, HepG2 cells; remark: listed apart in the source
Description: Cytotoxicity against human HepG2 cells assessed as cell viability at 300 uM after 24 hrs by MTT assay relative to control

[16] = Inhibition of voltage-dependent Ca2+ channel; conditions: concentration not given here
[17] = molecular target: T1, Acetylcholinesterase; test: Inhibition of electric eel AChE

Sequence of Cholinesterase (P06276 whole entry): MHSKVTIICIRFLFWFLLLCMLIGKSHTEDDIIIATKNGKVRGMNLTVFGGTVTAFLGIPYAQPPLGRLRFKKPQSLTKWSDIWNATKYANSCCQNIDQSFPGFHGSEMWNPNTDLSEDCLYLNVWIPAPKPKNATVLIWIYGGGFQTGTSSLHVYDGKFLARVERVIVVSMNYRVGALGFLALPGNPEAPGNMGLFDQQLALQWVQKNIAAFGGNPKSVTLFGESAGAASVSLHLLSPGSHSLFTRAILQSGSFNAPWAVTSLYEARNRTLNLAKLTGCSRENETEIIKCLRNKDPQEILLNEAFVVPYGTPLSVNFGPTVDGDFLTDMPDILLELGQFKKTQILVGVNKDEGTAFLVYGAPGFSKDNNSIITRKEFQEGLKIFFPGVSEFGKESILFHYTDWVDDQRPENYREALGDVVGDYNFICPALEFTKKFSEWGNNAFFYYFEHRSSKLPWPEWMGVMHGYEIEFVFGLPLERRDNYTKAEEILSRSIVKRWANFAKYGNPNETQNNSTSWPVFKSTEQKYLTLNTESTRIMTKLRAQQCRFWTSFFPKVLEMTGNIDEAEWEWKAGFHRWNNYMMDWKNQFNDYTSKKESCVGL
Sequence of Acetylcholinesterase (Homo sapiens, UniProt P22303) (P22303 whole entry): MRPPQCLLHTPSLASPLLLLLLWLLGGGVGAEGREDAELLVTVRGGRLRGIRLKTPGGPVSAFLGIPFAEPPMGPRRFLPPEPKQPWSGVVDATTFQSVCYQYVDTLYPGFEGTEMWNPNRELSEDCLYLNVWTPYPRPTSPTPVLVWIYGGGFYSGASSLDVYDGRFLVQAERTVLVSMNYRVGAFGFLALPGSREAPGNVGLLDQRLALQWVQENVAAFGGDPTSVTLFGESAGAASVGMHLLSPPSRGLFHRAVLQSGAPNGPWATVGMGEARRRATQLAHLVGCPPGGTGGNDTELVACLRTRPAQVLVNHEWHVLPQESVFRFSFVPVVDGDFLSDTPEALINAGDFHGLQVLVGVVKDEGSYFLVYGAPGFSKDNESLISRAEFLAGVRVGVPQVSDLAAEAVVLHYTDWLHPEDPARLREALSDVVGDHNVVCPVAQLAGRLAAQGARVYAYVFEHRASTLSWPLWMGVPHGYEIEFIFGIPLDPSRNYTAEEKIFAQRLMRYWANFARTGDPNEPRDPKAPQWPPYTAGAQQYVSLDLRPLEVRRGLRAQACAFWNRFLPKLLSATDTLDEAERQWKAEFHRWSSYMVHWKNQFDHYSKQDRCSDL

SMILES | IC50 [1] [µM] | IC50 [2] [µM] | Activity [5] | Papp [7] [×10⁻⁶ cm/s] | Activity [8] | EC50 [9] [µM] | viability at 24 h, 1 µM [10] [%] | viability at 24 h, 3 µM [11] [%] | viability at 24 h, 10 µM [12] [%] | viability at 24 h, 30 µM [13] [%] | viability at 24 h, 100 µM [14] [%] | viability at 24 h, 300 µM [15] [%] | further results
COc1ccccc1C1c2ccc3ccccc3c2Oc2nc3c(c(N)c21)CCCC3 (racemic) | 4.53 | 9.37 |  |  |  |  |  |  |  |  |  |  | 
COc1cc(C2c3ccc4ccccc4c3Oc3nc4c(c(N)c32)CCCC4)ccc1O (racemic) | 0.33 | > 10 |  |  |  |  |  |  |  |  |  |  | Ki [3]: 0.081 µM; fold change (FC) [4]: 1.5
Nc1c2c(nc3c1C(c1ccccc1)c1ccc4ccccc4c1O3)CCCC2 (racemic) | 0.3 | > 10 |  |  |  |  |  |  |  |  |  |  | 
Nc1c2c(nc3c1C(c1c(Cl)cccc1Cl)c1ccc4ccccc4c1O3)CCCC2 (racemic) | 4.01 | > 10 |  |  |  |  |  |  |  |  |  |  | 
Nc1c2c(nc3c1C(c1ccc(O)cc1)c1ccc4ccccc4c1O3)CCCC2 (racemic) | 7.83 | > 10 |  |  |  |  |  |  |  |  |  |  | 
Nc1c2c(nc3c1C(c1ccc(Cl)c(Cl)c1)c1ccc4ccccc4c1O3)CCCC2 (racemic) | 5.07 | > 10 | Non-toxic | 12.3 | Dose-dependent effect | 3.28 | 97.5 | 86.2 | 79.9 | 68.1 | 63.4 | 61 | Activity [6]: 40%
COc1ccc(C2c3ccc4ccccc4c3Oc3nc4c(c(N)c32)CCCC4)c(OC)c1 (racemic) | 0.37 | > 10 | Non-toxic | 14.6 | Dose-dependent effect | 11.1 | 97.8 | 84.2 | 85.3 | 76.9 | 78.9 | 74.8 | Activity [6]: 40%
CCOC(=O)C1=C(C)Oc2nc3c(c(N)c2C1c1ccc(OC)cc1)CCCC3 (stereo not drawn) |  |  |  |  |  |  |  |  |  |  |  |  | inhibition [16]: 50%
CCOC(=O)c1c(C)nc2nc3c(c(N)c2c1-c1ccc(F)cc1)CCCC3 |  |  |  |  |  |  |  |  |  |  |  |  | inhibition [16]: 38%; IC50 [17]: 0.71 µM
Cc1ccc(C2c3ccc4ccccc4c3Oc3nc4c(c(N)c32)CCCC4)cc1 (racemic) | 0.4 | > 10 |  |  |  |  |  |  |  |  |  |  | 
COc1cc(C2c3ccc4ccccc4c3Oc3nc4c(c(N)c32)CCCC4)cc(OC)c1OC (racemic) | 3.51 | > 10 | Non-toxic | 23.4 | Dose-dependent effect | 4.38 | 96.5 | 95.6 | 96.4 | 96.6 | 94.5 | 93.5 | 
Nc1c2c(nc3c1C(c1ccc([N+](=O)[O-])cc1)c1ccc4ccccc4c1O3)CCCC2 (racemic) | 5.74 | > 10 | Non-toxic | 16.1 | Dose-dependent effect | 2.36 | 95 | 93 | 92.6 | 90.3 | 85 | 72.1 | Activity [6]: 40%
